Test results from the Deep4Chem optical property database.
One block for each molecule: values may come before it.

Experiment: solvent given as SMILES

Compound: COc1cc2c3c(c4cc(OC)c(OC)c(OC)c4c2c(OC)c1OC)=[N+]1C(=C(c2c(C)cc(C)cc2C)c2cc4c5cc(OC)c(OC)c(OC)c5c5c(OC)c(OC)c(OC)cc5c4n2[B-]1(F)F)C=3
absorption maximum (in C1CCCCC1): 733 nm
absorption maximum (in C1CCOC1): 730 nm
absorption maximum (in CC#N): 718 nm
absorption maximum (in Cc1ccccc1): 740 nm
absorption maximum (in ClCCl): 727 nm

Compound: COc1nc(Nc2cc3ccc4cccc5ccc(c2)c3c45)nc(OC)n1
absorption maximum (in CC#N): 336 nm
absorption maximum (in CCCCOCCCC): 336 nm
absorption maximum (in CO): 334 nm

Compound: CC(C)[Si]1(C(C)C)c2cc(C#N)ccc2-c2ccc(N(C)C)cc21
absorption maximum (in C1CCCCC1): 357 nm
absorption maximum (in CC#N): 360 nm
absorption maximum (in CCO): 360 nm
absorption maximum (in CCOCC): 358 nm
absorption maximum (in CS(C)=O): 375 nm
absorption maximum (in ClCCl): 368 nm
absorption maximum (in c1ccccc1): 360 nm

Compound: Cc1cc(C)c(C2=C3C=C(c4ccccc4)C(c4ccccc4)=[N+]3[B-](F)(F)n3c2cc(-c2ccccc2)c3-c2ccccc2)c(C)c1
absorption maximum (in C1CCCCC1): 590 nm
absorption maximum (in C1CCOC1): 587 nm
absorption maximum (in CC#N): 578 nm
absorption maximum (in Cc1ccccc1): 592 nm
absorption maximum (in ClCCl): 585 nm

Compound: CC1CCC(O)(c2ccc(-c3cccs3)s2)CC1 (configuration not stated)
absorption maximum (in C1CCOC1): 341 nm
absorption maximum (in CC#N): 341 nm
absorption maximum (in CCCCCC): 341 nm
absorption maximum (in CCO): 341 nm
absorption maximum (in OCCOCCO): 345 nm
absorption maximum (in c1ccncc1): 345 nm

Compound: C[Si](C)(C)C#Cc1ccc(C#C[Si](C)(C)C)c2ccccc12
absorption maximum (in C1CCCCC1): 347 nm

Compound: COc1ccc(C2=Nc3cccc4[n+]3[B-](F)(O2)OC(c2ccc(OC)cc2)=N4)cc1
absorption maximum (in ClCCl): 399 nm

Compound: C[C@]12C(=O)NC(=O)N([C@H]3CC(O)[C@@H](CO)O3)[C@H]1[C@H]1Oc3cc4oc(=O)ccc4cc3[C@H]12 (some centres not stated)
absorption maximum (in CC(C)O): 327 nm
absorption maximum (in CCO): 327 nm
absorption maximum (in CCOCC): 325 nm
absorption maximum (in CO): 328 nm
absorption maximum (in O): 329 nm

Compound: CCCCCCOc1cc(/C=C/c2cc(OCCCCCC)c(/C=C/c3cc(OCCCCCC)c(C=C4C(=C(C#N)C#N)c5ccccc5C4=C(C#N)C#N)cc3OCCCCCC)cc2OCCCCCC)c(OCCCCCC)cc1C=C1C(=C(C#N)C#N)c2ccccc2C1=C(C#N)C#N
absorption maximum (in ClCCl): 640 nm

Compound: CC(C)(C)NC(=O)c1ccc(Br)c2ccc3c4ccccc4c4ccccc4c3c12
absorption maximum (in ClCCl): 343 nm

Compound: Cc1c(COC(=O)Cc2cccc3ccccc23)n2c(OCC(=O)Cc3cccc4ccccc34)c(C)c(=O)n2c1=O
absorption maximum (in CCO): 379 nm

Compound: CCCSc1ccc2n1[B-](F)(F)[N+]1=C(SC#N)C=CC1=C2c1ccccc1
absorption maximum (in CC#N): 538 nm
absorption maximum (in CCCCCC): 555 nm
absorption maximum (in CCOC(C)=O): 549 nm
absorption maximum (in CO): 544 nm
absorption maximum (in ClCCl): 552 nm

Compound: CCCCCCCCc1ccc(-c2c3cc(-c4cc(CCCCCCCC)c(-c5ccc(-c6sc(/C=C7\SC(SCC)=NC7=O)cc6CCCCCCCC)s5)s4)sc3c(-c3ccc(CCCCCCCC)s3)c3cc(-c4cc(CCCCCCCC)c(-c5ccc(-c6sc(/C=C7\SC(SCC)=NC7=O)cc6CCCCCCCC)s5)s4)sc23)s1
absorption maximum (in ClC(Cl)Cl): 500 nm

Compound: CCCCN1/C(=C/C=C/C2=[N+](C)c3ccccc3C2(C)C)C(C)(C)c2cc(Br)ccc21
absorption maximum (in CS(C)=O): 556 nm

Compound: CCCCCCOc1cc(C=C2C(=O)c3ccccc3C2=O)c(OCCCCCC)cc1C=C1C(=O)c2ccccc2C1=O
absorption maximum (in ClCCl): 512 nm

Compound: COc1ccc(-c2c3cc4ccccc4cc3c(-c3ccc(OC)cc3)c3cc4sc(C)cc4cc23)cc1
absorption maximum (in ClCCl): 550 nm

Compound: CCCCNc1nc(/C=C/c2ccccc2)[n+]([O-])c2c1CCCC2
absorption maximum (in ClCCl): 415 nm

Compound: Cc1cc2oc3ccccc3c2c2[nH]c3ccccc3c12
absorption maximum (in ClCCl): 337 nm

Compound: N#Cc1c(-n2nnc3c2CCC2C(CC3)[C@@H]2CO)n([C@H]2C[C@H](O)[C@@H](CO)O2)c2ncnc(N)c12 (some centres not stated)
absorption maximum (in CO): 287 nm

Compound: N#Cc1c(-n2c3ccccc3c3cc(Br)ccc32)c(C#N)c(-n2c3ccccc3c3cc(Br)ccc32)c(-n2c3ccccc3c3cc(Br)ccc32)c1-n1c2ccccc2c2cc(Br)ccc21
absorption maximum (in Cc1ccccc1): 381 nm

Compound: CCC1(CC)c2ccccc2-c2ccc(C#Cc3ccc4ccc5cccc6ccc3c4c56)cc21
absorption maximum (in C1CCCCC1): 401 nm
absorption maximum (in C1CCOC1): 402 nm
absorption maximum (in CC#N): 399 nm
absorption maximum (in CCOC(C)=O): 400 nm
absorption maximum (in CN(C)C=O): 404 nm
absorption maximum (in Cc1ccccc1): 405 nm
absorption maximum (in ClC(Cl)Cl): 404 nm
absorption maximum (in ClCCl): 403 nm

Compound: N#CC(C#N)=C(/C=C/c1cc2c3c(c1)CCCN3CCC2)c1ccc2c3c(cccc13)CC2
absorption maximum (in C1CCOC1): 527 nm
absorption maximum (in CC#N): 540 nm
absorption maximum (in CC(C)=O): 535 nm
absorption maximum (in CCOC(C)=O): 523 nm
absorption maximum (in CN(C)C=O): 550 nm
absorption maximum (in CO): 541 nm
absorption maximum (in Cc1ccccc1): 526 nm
absorption maximum (in ClC(Cl)Cl): 538 nm

Compound: COCCOCCOCCOCC(COCCOCCOCCOC)Oc1cc(/C=C/c2ccc(/C=C(\C#N)c3ccccc3)cc2)c(OC(COCCOCCOCCOC)COCCOCCOCCOC)cc1/C=C/c1ccc(/C=C(\C#N)c2ccccc2)cc1
absorption maximum (in ClCCl): 433 nm

Compound: CCCCCCOc1ccc2c(c1)C1=[N+]3C2=Cc2c4ccc(OCCCCCC)cc4c4n2[B-]3(Oc2ccccc21)Oc1ccccc1-4 (configuration not stated)
absorption maximum (in C1CCOC1): 748 nm

Compound: CC(C)=CC(=O)c1cc2c(cc1F)NC(C)(C)CC2=O
absorption maximum (in CC#N): 356 nm

Compound: c1ccc2c(c1)Oc1ccccc1N2c1ccc2c(c1)c1ccccc1n1c3ccccc3nc21
absorption maximum (in Cc1ccccc1): 376 nm

Compound: CC1(C)c2ccccc2N(c2ccc(-c3ccc(C#N)c(C#N)n3)cc2)c2ccccc21
absorption maximum (in Cc1ccccc1): 404 nm

Compound: CCN1c2ccc(/C=N/Nc3ccccn3)cc2Sc2cc(/C=N/Nc3ccccn3)ccc21
absorption maximum (in C1CCOC1): 392 nm
absorption maximum (in CS(C)=O): 398 nm
absorption maximum (in Cc1ccccc1): 392 nm
absorption maximum (in ClCCl): 393 nm

Second part, the molecule after the results:

absorption maximum (in ClCCl): 351 nm
Compound: CCOC(=O)c1c(C(=O)OC)c(-c2cc3cc(OC)ccc3oc2=O)nn1-c1ccccc1

absorption maximum (in c1ccccc1): 364 nm
Compound: CCOC(=O)CSc1nc2c(c(C#N)c1C#N)CCCC2

absorption maximum (in CS(C)=O): 462 nm
absorption maximum (in ClCCl): 458 nm
Compound: CCN(CC)c1ccc2c(c1)oc(=O)c1c(=O)oc3c(OC)cccc3c12

absorption maximum (in ClCCl): 490 nm
Compound: N#C/C(=C\c1ccc(/C=C/c2ccc(N(c3ccccc3)c3ccccc3)cc2)s1)C(=O)O

absorption maximum (in C1CCOC1): 336 nm
Compound: CCC1(CC)c2cc(Br)ccc2-c2c1c1c(c3c2C(CC)(CC)c2cc(-c4cccs4)ccc2-3)C(CC)(CC)c2cc(Br)ccc2-1

absorption maximum (in ClCCl): 378 nm
Compound: CC(C)(C)c1ccc(-c2cc(-c3ccc(-c4cc(-c5ccc(C(C)(C)C)cc5)c(C(=O)N5CCCCC5)s4)s3)sc2C(=O)N2CCCCC2)cc1

absorption maximum (in ClCCl): 518 nm
Compound: Clc1nnc(O/N=C/c2ccc(N(c3ccccc3)c3ccccc3)cc2)nn1

absorption maximum (in ClCCl): 361 nm
Compound: CCOC(=O)c1c(-c2cc3c(ccc4ccccc43)oc2=O)nn(-c2cccc(Cl)c2)c1C(=O)OCC

absorption maximum (in ClCCl): 433 nm
Compound: CN(C)c1ccc(/C=C/c2ncnc3ccccc23)cc1

absorption maximum (in CC#N): 449 nm
Compound: CN(C)c1ccc(C=C2Oc3cccc(O)c3C2=O)cc1

absorption maximum (in ClCCl): 331 nm
Compound: CC(C)(C)NC(=O)c1ccc(-c2ccc(N3c4ccccc4Oc4ccccc43)cc2)c2ccc3c4ccc(F)cc4c4cc(F)ccc4c3c12

absorption maximum (in ClCCl): 395 nm
Compound: COC(=O)c1[nH]c(-c2ccc(Br)cc2)c2nnc3ccc(OC)cc3c12
